Molecular target: T1, PI3Kδ (PI3Kd) (Homo sapiens, UniProt O00329)
T1 construct: purchased Millipore
Experiment: PI3K HTRF enzymatic inhibition assay (cell-free, Millipore kit), PI3Kd isoform
Format: biochemical
Conditions: recombinant PI3Kd 0.60 nM, PIP2 2 µM, ATP 20 µM, incubation 8 minutes
Protocol: Compounds were screened for their ability to inhibit PI3Kα (PI3Ka), PI3Kβ (PI3Kb), PI3Kδ (PI3Kd) and PI3Kγ (PI3Kg) using a cell-free based P13K HTRF™ assay (Millipore, ref. #33-017) All reagents to perform the reactions were prepared according to the manufacturer protocol. All PI3K enzymes were recombinant and were purchased at Millipore.
All four assays were performed according to the following procedure: • 1) Dilution curves of compounds were done in 100% DMSO and dispensed in a reservoir plate, typically from column 2 to 11. Column 1 and 12 were used for the negative controls (100% inhibition using a reference PI3K inhibitor for the four isoforms) and the positive controls (0% inhibition using dimethyl sulfoxide (DMSO) only). • 2) Mix of Phosphoinositide 3-kinase (PI3K) + Phosphatidylinositol 4,5-bisphosphate (PIP2) was diluted in buffer (supplied with the kit) and plated in a medium binding black 96-well plate (Greiner ref. #675076) PI3Ka was diluted at 0.25 nM with PIP2 at 2 µM; PI3Kb was diluted at 0.50 nM with PIP2 at 5 µM; PI3Kd was diluted at 0.60 nM with PIP2 at 2 µM and PI3Kg was diluted at 0.30 nM with PIP2 at 10 µM. These concentrations were final in the assay. • 3) A reservoir plate containing Adenosine TriPhosphate (ATP) diluted in the Millipore kit buffer was prepared for each isoform. The final concentration of ATP in the assay was 10 µM, 15 µM, 20 µM and 10 µM for PI3Ka, PI3Kb, PI3Kd and PI3Kg respectively. • 4) Reactions were started by addition to the PI3K+PIP2 plates of the ATP and compounds simultaneously. Incubation was done for 8 minutes (for all four isoforms) then the reaction was stopped by addition of the Stop solution. The Detection solution was added. These solutions were prepared previously according to the kit specifications. The plates were then incubated overnight at RT before reading the signal in an Envision (PerkinElmer), with excitation at 340 nm and emissions at 620 and 665 nm. • 5) Data obtained from the compound curves were normalized in respect to the negative and positive controls, and then fitted by a 4-parameter log curve in ActivityBase (IDBS) in order to determine their potency.

T1 sequence (O00329 whole entry): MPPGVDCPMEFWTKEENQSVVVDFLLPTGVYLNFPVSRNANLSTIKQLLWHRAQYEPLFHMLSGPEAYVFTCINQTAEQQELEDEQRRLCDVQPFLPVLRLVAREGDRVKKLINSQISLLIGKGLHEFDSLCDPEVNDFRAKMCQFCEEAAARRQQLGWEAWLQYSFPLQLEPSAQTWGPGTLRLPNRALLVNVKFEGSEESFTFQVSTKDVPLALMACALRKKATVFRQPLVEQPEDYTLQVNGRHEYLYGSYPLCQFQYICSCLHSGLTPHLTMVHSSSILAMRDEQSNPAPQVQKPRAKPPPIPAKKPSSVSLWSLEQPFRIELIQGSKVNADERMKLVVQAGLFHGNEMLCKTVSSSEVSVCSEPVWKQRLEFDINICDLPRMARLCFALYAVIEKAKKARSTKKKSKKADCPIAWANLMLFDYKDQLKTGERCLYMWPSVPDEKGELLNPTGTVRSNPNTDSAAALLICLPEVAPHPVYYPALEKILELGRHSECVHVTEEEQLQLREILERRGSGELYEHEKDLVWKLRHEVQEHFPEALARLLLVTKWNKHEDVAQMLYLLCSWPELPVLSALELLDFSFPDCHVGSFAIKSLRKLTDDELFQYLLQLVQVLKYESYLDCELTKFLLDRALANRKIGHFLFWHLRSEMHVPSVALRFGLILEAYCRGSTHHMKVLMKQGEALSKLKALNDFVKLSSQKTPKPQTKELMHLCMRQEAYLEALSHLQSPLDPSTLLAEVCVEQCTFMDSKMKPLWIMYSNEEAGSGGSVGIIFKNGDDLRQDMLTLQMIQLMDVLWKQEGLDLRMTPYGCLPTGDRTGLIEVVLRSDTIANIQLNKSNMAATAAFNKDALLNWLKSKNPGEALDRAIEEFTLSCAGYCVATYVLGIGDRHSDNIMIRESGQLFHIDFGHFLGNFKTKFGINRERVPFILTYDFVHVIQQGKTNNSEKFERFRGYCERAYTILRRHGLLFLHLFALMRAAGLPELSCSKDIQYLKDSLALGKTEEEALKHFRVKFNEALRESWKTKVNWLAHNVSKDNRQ
T1 sequence (P27986 whole entry partner): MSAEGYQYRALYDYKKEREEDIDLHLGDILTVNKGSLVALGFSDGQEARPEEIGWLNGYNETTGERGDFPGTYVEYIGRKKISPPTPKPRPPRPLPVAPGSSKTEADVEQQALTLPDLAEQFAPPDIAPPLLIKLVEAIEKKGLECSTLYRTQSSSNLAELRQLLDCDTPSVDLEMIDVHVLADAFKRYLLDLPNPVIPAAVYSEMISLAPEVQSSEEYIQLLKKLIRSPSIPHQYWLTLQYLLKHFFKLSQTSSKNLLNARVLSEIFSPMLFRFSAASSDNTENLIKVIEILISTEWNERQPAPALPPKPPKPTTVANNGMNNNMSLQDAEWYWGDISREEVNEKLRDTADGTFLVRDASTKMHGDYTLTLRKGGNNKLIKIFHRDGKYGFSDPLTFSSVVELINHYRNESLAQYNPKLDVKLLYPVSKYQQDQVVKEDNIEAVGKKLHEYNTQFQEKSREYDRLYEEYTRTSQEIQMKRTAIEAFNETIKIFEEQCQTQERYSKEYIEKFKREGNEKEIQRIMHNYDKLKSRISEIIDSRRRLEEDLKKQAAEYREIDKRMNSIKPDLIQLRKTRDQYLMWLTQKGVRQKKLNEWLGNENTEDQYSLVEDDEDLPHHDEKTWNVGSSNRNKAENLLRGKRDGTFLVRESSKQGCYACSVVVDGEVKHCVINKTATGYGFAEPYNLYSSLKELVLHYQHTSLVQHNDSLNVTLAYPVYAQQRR

Row | SMILES | IC50
1 | C[C@H](Nc1nc(N)nc2[nH]cnc12)c1nc2cccnc2n1-c1ccccc1 [Example 9, (S)-N6-(1-(3-Phenyl-3H-imidazo[4,5-b]pyridin-2-yl)ethyl)-9H-purine-2,6-diamine] | 85.9 nM
2 | COc1ccc2nc([C@H](C)Nc3ncnc4[nH]cnc34)n(-c3ccccc3)c2n1 [Example 10, (S)-N-(1-(5-Methoxy-3-phenyl-3H-imidazo[4,5-b]pyridin-2-yl)ethyl)-9H-purin-6-amine] | 31.6 nM
3 | COc1ccc2nc([C@H](C)Nc3ncnc4[nH]cnc34)n(-c3cc(F)cc(F)c3)c2n1 [Example 15, (S)-N-(1-(3-(3,5-Difluorophenyl)-5-methoxy-3H-imidazo[4,5-b]pyridin-2-yl)ethyl)-9H-purin-6-amine] | 10.9 nM
4 | C[C@H](Nc1ncnc(N)c1C#N)c1nc2cccnc2n1-c1ccccc1 [Example 19, (S)-4-Amino-6-(1-(3-phenyl-3H-imidazo[4,5-b]pyridin-2-yl)ethylamino)pyrimidine-5-carbonitrile] | 132 nM
5 | COc1ccc2nc([C@H](C)Nc3ncnc(N)c3C#N)n(-c3ccccc3)c2n1 [Example 21, (S)-4-Amino-6-(1-(5-methoxy-3-phenyl-3H-imidazo[4,5-b]pyridin-2-yl)ethylamino)pyrimidine-5-carbonitrile] | 22.2 nM
6 | C[C@H](Nc1ncnc2[nH]cnc12)c1nc2cc(F)cnc2n1-c1ccccc1 [Example 37, N-[(1S)-1-(6-Fluoro-3-phenyl-3H-imidazo[4,5-b]pyridin-2-yl)ethyl]-9H-purin-6-amine] | 165 nM

Further compounds by falling IC50, results first:

Row | IC50 | SMILES
7 | 1800 nM | C[C@H](Nc1ncnc2[nH]cnc12)c1nc2ncccc2n1-c1ccccc1 [Example 43, (S)-N-(1-(1-Phenyl-1H-imidazo[4,5-b]pyridin-2-yl)ethyl)-9H-purin-6-amine]
8 | 693 nM | Cc1ccc2nc([C@H](C)Nc3ccnc4ccnn34)n(-c3ccccc3)c2n1 [Example 26, (S)-N-(1-(5-Methyl-3-phenyl-3H-imidazo[4,5-b]pyridin-2-yl)ethyl)pyrazolo[1,5-a]pyrimidin-7-amine]
9 | 215 nM | C[C@H](Nc1ncnc2[nH]cnc12)c1nc2cccnc2n1-c1ccccc1Cl [Example 39, N-{(1S)-1-[3-(2-Chlorophenyl)-3H-imidazo[4,5-b]pyridin-2-yl]ethyl}-9H-purin-6-amine]
10 | 188 nM | C[C@H](Nc1ncnc2[nH]cnc12)c1nc2cccnc2n1-c1cc(F)cc(F)c1 [Example 12, (S)-N-(1-(3-(3,5-Difluorophenyl)-3H-imidazo[4,5-b]pyridin-2-yl)ethyl)-9H-purin-6-amine]
11 | 52.1 nM | Cc1ccc2nc([C@H](C)Nc3ncnc(N)c3C#N)n(-c3ccccc3)c2n1 [Example 25, (S)-4-Amino-6-(1-(5-methyl-3-phenyl-3H-imidazo[4,5-b]pyridin-2-yl)ethylamino)pyrimidine-5-carbonitrile]
12 | 14.4 nM | CC[C@H](Nc1ncnc2[nH]cnc12)c1nc2ccc(OC)nc2n1-c1ccccc1 [Example 14, (S)-N-(1-(5-Methoxy-3-phenyl-3H-imidazo[4,5-b]pyridin-2-yl)propyl)-9H-purin-6-amine]

— patent EP2518071A1, “Imidazopyridine derivatives as PI3K inhibitors” (Almirall, S.A., priority 2011, dated 2012)
